Data from paper PMC11530593, “Structural mechanism of human HCN1 hyperpolarization-activated channel inhibition by ivabradine” (The Journal of Biological Chemistry, 2024).

Target: T1, WT hHCN1 (Homo sapiens, UniProt O60741)
T1 construct: Full-length WT or mutant human HCN1 were cloned into the pcDNA3.1 vector; expressed in transfected cells; host or cells: HeLa cells, pcDNA3.1 vector, transient lipofection
T1 sequence (O60741 1-890): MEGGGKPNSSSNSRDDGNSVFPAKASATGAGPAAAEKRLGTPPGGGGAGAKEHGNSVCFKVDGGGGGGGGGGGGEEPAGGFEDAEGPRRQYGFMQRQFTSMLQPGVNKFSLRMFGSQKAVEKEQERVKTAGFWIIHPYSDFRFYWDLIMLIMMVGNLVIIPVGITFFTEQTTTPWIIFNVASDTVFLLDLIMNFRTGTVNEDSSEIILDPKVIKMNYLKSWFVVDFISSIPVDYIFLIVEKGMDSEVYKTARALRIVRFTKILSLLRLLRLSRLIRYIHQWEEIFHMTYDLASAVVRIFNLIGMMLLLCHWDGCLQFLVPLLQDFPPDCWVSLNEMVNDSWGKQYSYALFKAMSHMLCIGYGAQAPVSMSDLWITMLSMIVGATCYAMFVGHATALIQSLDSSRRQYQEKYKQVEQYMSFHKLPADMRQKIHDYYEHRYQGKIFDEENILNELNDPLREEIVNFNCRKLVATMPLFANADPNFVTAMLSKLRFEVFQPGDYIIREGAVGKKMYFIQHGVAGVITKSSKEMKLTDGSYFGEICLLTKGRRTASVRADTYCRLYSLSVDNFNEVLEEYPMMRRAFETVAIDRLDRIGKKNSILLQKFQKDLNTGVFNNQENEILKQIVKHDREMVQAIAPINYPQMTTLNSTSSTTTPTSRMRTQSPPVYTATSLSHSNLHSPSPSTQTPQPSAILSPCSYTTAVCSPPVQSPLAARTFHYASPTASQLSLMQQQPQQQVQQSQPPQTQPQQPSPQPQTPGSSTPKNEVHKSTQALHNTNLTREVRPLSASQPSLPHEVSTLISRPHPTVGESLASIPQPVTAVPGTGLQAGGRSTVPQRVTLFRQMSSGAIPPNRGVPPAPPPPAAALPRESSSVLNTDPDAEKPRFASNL
Assay: Whole-cell patch-clamp, Ih inhibition in transfected HeLa cells
Format: cell-based
Conditions: membrane potential -140 mV, read-out: half-maximal inhibitory concentration (IC50) of Ih inhibition
Experimental: The electrophysiological characteristics of WT hHCN1 were recorded using whole-cell patch-clamp. […] Activation of the HCN1 channel occurred in response to membrane hyperpolarization.
Full-length WT or mutant human HCN1 were cloned into the pcDNA3.1 vector for electrophysiological experiments. HeLa cells (from Thermo Fisher Scientific) cultured in Dulbecco's modified Eagle's medium (from Solarbio Life Science) + 10% fetal bovine serum (from ExCell Bio) at 37 °C were transiently transfected using lipofection, and whole-cell patch-clamp recordings were obtained using the Axon 200B amplifier (Molecular Devices) and clampex software (https://www.moleculardevices.com/products/axon-patch-clamp-system/acquisition-and-analysis-software/pclamp-software-suite), 36 to 48 h posttransfection. The extracellular solution contained 110 mM NaCl, 0.5 mM MgCl2, 1.8 mM CaCl2, 5 mM Hepes, 30 mM KCl, and pH was adjusted to 7.4 with NaOH, while the pipette solution contained 130 mM KCl, 10 mM NaCl, 0.5 mM MgCl2, 1 mM EGTA, 5 mM Hepes, and pH was adjusted to 7.4 with KOH. The recordings were performed at room temperature, voltage-clamp mode, and filtered at 1 kHz. The sampling frequency was 10 kHz, and the series resistance was limited to 5 MΩ. To elicit channel currents, step pulses of 3 s duration ranging from −180 mV to −30 mV were applied, followed by a step to −180 mV lasting 1.25 s. The tail currents evoked by the second step were used to determine the voltage-dependent activation curves and calculate the midpoint of activation potential (V1/2). The half maximal inhibitory concentration (IC50) of drugs was determined by recording currents at a pulse of −140 mV and analyzing current amplitudes at varying drug concentrations. The IC50 value was calculated using the Hill equation.

O=C(CCCN1CCC(O)(c2ccc(Cl)cc2)CC1)c1ccc(F)cc1 [haloperidol]
IC50: 33.4 µM
